The values that follow come from patent publication EP0486958A1, “Physostigmine derivatives” (MEDIOLANUM FARMACEUTICI s.r.l., priority 1990, dated 1992).

For data set [1], the target named is T1, Electric Eel acetylcholinesterase, type V.S. (Electrophorus electricus, UniProt O42275).
T1 construct: purchased Sigma Chemicals type V.S
As to the kind of experiment: Acetylcholinesterase inhibiting activity, test in vitro (Ellman method). The data set is classed as biochemical. As to conditions: 20 min incubation, 25°C, phosphate buffer pH 8. The protocol:
The acetylcholinesterase activity was determined by the method of Ellman et al. (Ellman, G.L. Courtney, K.D. Andres, V., Featherstone, R.M. A new and rapide colorimetric determination of acetylcholinesterase activity - Biochem. Pharm., 1961, 7, 88).
The Electric Eel acetylcholinesterase, type V.S. of Sigma Chemicals was employed.
To determine IC₅₀, the incubation medium consisted of: Ellman reagent (5,5'-Dithiobis-2-nitrobenzoic acid) 100 µl; enzymatic solution (5,5 units/ml) 35 µl; variable concentration inhibitor 50 µl; phosphate buffer (0.1 mol/l; pH 8) 3000 µl. After 20 min. incubation, 20 µl acetylcholine (0.075 mol/l) are added, and the spectrophotomer, with kinetic software and thermostated at 25°C, was read for 3-5 min. At this point the reaction is in the stationary state. The concentrations of the products apt to inhibit by 50% (IC₅₀) the enzyme activity were calculated.
Background: In Ellman's method for cholinesterases, released thiocholine reacts with DTNB.

The test system of a further data set is Suiss female rats. As to the kind of experiment: Acute toxicity (LD₅₀). The data set is classed as in vivo. As to conditions: for acute toxicity lower than the one of physostigmine: relative to physostigmine. The protocol: (§1) The LD₅₀ acute toxicity of the compounds obtained in Examples 2,3,4 and 6 has evaluated on Suiss female rats.
(§2) The compounds were administered per os and endovenously to different groups of animals in the form of tatrates dissolved in water. (The endovenous administration provides the highest bio-availability of the products). The results are shown in Table 3, together with the comparison ones obtained employing physostigmine.

The target in data set [2] is T2, brain acetylcholinesterase (Rattus norvegicus, UniProt P37136).
T2 construct: from tissue; host or cells: brain of male CD/SD rats
T2 sequence (P37136 32-614): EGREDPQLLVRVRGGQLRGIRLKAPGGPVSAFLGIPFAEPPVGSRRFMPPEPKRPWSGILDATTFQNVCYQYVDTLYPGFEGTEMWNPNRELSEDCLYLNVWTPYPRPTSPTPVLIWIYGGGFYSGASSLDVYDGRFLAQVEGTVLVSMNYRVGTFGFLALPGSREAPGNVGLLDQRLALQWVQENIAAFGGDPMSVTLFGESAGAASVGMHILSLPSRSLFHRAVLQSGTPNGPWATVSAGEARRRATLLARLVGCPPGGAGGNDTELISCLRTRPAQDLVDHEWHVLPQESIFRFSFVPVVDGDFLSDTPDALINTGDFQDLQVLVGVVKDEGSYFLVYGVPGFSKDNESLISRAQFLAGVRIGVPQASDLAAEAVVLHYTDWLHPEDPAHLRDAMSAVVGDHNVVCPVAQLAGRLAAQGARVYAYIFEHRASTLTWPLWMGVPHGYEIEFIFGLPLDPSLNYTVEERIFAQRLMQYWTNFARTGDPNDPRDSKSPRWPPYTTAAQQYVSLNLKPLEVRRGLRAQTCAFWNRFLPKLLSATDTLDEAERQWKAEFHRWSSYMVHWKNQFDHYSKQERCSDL
As to the kind of experiment: Brain acetylcholinesterase activity after oral administration to rats (enzymatic dosage, Ellman method on isolated brains). Type of data set: in vivo, male CD/SD rats. Conditions: 50 mg/kg by gastric probe as tartrates in water, vs control group, individual animals; for % Variation of acetylcholinesterase at time 10′: 10′ after treatment; for % Variation of acetylcholinesterase at time 60′: 60′ after treatment; for % Variation of acetylcholinesterase at time 120′: 120′ after treatment. The protocol:
The effects of the compounds of Examples 2 and 3 on the brain acetylcholinesterase activity of male CD/SD rats evaluation were administered by gastric probe at the dose of 50 mg/kg in the form of tartrates dissolved in water. The rats were previously kept from eating for 18 hrs. One group of rats treated by or with physiological solution served as control. The rats were sacrificed by decapitation at various times after the treatment with the products under examination. On the isolated brains the acetylcholinesterase activity was determined by the Ellman et al. method employed in the "vitro" tests.
The percentage variation of the acetylcholinesterase activity in the brain of the rats treated by or with the brains of rats treated with physiological solution (control group) was calculated.

Another data set can be described thus: Acute toxicity (LD₅₀). Type of data set: in vivo, Suiss female rats. Conditions: rat, tartrates dissolved in water. The protocol: as §1, §2
Another data set deals with acetylcholinesterase (Homo sapiens, UniProt P22303). Conditions: literature data; cited from earlier work.
Setting [3] is: water, iv, endovenous, read-out: LD₅₀ endovenous.
Setting [4] is: water, po, oral (per os), read-out: LD₅₀ oral.

In general, IC50 refers to the concentration that inhibits the measured activity by half. High values mean weaker potency, low ones greater potency.

“And” between values parts separate entries of the source, which are not always exact repeats. Identical values can stand only once. Like-named read-outs stand apart in the source and are kept apart here.

T1 sequence (O42275 24-633): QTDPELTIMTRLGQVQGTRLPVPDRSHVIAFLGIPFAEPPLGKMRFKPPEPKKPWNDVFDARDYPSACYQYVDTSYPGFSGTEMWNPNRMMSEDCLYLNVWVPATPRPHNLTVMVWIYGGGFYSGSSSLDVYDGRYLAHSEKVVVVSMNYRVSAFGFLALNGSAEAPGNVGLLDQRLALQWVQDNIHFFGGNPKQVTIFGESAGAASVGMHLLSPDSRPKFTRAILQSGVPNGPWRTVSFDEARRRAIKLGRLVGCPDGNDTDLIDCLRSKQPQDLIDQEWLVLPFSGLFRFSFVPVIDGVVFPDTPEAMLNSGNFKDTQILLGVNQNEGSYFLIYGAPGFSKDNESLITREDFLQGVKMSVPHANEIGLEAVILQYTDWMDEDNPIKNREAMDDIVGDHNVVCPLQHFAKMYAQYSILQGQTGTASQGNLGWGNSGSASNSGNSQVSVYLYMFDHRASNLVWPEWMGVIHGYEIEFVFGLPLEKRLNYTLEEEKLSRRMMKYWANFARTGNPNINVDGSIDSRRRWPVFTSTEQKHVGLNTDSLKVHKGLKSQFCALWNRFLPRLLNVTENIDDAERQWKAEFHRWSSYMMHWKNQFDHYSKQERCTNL
Sequence of acetylcholinesterase (P22303 32-614): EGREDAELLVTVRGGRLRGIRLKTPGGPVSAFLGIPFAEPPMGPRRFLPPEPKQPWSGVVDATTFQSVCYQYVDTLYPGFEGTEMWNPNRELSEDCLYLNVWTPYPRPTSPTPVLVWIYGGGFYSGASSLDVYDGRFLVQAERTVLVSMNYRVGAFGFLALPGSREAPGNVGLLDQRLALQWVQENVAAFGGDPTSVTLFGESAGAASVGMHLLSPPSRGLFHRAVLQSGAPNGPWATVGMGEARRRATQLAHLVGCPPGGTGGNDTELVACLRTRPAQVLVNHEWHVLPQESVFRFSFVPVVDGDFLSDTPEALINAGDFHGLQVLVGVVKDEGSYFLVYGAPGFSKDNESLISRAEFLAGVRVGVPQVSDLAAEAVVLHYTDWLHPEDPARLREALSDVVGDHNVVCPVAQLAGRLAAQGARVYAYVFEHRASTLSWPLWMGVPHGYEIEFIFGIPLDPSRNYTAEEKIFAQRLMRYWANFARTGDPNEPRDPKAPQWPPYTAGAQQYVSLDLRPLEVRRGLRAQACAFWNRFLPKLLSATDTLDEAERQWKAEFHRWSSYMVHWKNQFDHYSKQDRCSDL

As to `CCCN(C)C(=O)Oc1ccc2c(c1)[C@]1(C)CCN(C)[C@@H]1N2C` (relative stereo) [Example 2, 1,2,3,3a,8,8a-hexaydro-1,3a,8-trimethylpyrrol(2,3-b)indol-5-ol(3aS-cis)-N-methyl,N-propylcarbamate (ester)], the midpoint of inhibition in data set [1], the IC50, lay at 1100 nM. For the same compound, the LD₅₀ endovenous with Suiss female rats (tartrates dissolved in water) was >50 mg/kg and <100 mg/kg. For the same compound, in the data set with Suiss female rats (oral (per os), tartrates dissolved in water), the LD₅₀ oral is >100 mg/kg and <150 mg/kg.

On to `CCCCCN(C)C(=O)Oc1ccc2c(c1)[C@]1(C)CCN(C)[C@@H]1N2C` [Example 3, 1,2,3,3a,8,8a-hexahydro-1,3a,8-trimethylpyrrol(2,3-b)indol-5-ol(3aS-cis)-N-methyl,N-pentylcarbamate (ester)], for which the concentration for half-maximal inhibition (IC50) in data set [1] was determined as 1900 nM. Besides, in data set [2], the “% Variation of acetylcholinesterase at time 10′” value is -60,1% and -53,8%; the “% Variation of acetylcholinesterase at time 60′” value was -69,6% and -70,9%; the “% Variation of acetylcholinesterase at time 120′” value was -72,0% and -68,0%. Moreover, the LD50 in “Acute toxicity (LD₅₀)” (setting [3]) was over 50 mg/kg. Also, in the data set “Acute toxicity (LD₅₀)” (setting [4]), the LD50 was over 178 mg/kg. In the data set on Suiss female rats (tartrates dissolved in water), this compound gave an LD₅₀ endovenous of under 100 mg/kg. Moreover, the “acute toxicity lower than the one of physostigmine” value with Suiss female rats is given as “approximately 100 times”.

As to `CCCCCCCN(C)C(=O)Oc1ccc2c(c1)[C@]1(C)CCN(C)[C@@H]1N2C` [Example 4, 1,2,3,3a,8,8a-hexahydro-1,3a,8-trimethylpyrrol(2,3-b)indol-5-ol (3aS-cis) N-methyl,N-heptylcarbamate (ester)], in data set [1], the IC50 turned out to be 3500 nM. In data set [2], the “% Variation of acetylcholinesterase at time 10′” value is 0% and 5,7%; the “% Variation of acetylcholinesterase at time 60′” value is -52,7% and -47,1%; the “% Variation of acetylcholinesterase at time 120′” value is -54,5% and -56,5%. For the same compound, the LD50 in the data set “Acute toxicity (LD₅₀)” (setting [3]) was over 50 mg/kg. Besides, the LD50 in the data set “Acute toxicity (LD₅₀)” (setting [4]) is over 200 mg/kg. Also, the LD₅₀ endovenous in the data set on Suiss female rats (tartrates dissolved in water) was under 100 mg/kg. Also, the “acute toxicity lower than the one of physostigmine” value in the data set on Suiss female rats is reported as “approximately 100 times”.

Compound `CN(Cc1ccccc1)C(=O)Oc1ccc2c(c1)[C@]1(C)CCN(C)[C@@H]1N2C` [Example 6, 1,2,3,3a,8,8a-hexahydro-1,3a,8-trimethylpyrrol.(2,3-b)indol-5-ol (3aS-cis) N-methyl,N-benzyl carbamate (ester)] displayed a 50% inhibitory concentration (IC50) in data set [1] of 1000 nM. Besides, the LD50 is under 50 mg/kg in “Acute toxicity (LD₅₀)” (setting [3]) and about 70 mg/kg in “Acute toxicity (LD₅₀)” (setting [4]).

Turning to `CNC(=O)Oc1ccc2c(c1)[C@]1(C)CCN(C)[C@@H]1N2C` [Physostigmine], the LD50 in the data set “Acute toxicity (LD₅₀)” (female, Suiss, in vivo, intravenous, endovenous, read-out: LD₅₀ endovenous) is 0.58 mg/kg; in “Acute toxicity (LD₅₀)” (female, Suiss, in vivo, po, oral (per os), read-out: LD₅₀ oral), 2.2 mg/kg.

For the compound `CCN(CC)C(=O)Oc1ccc2c(c1)C1(C)CCN(C)C1N2C` (stereo not shown) [diethylphysostigmine], the acetylcholinesterase inhibiting activity result at acetylcholinesterase is given as “low inhibiting activity”.
